| melting point | Compound |
| --- | --- |
| 194 °C | COc1ccc(C(=Cn2cc[nH]c2=O)CC(=O)O)cc1OC1CCCC1 |
| 198 °C | CC(C)c1cccc(C(C)C)c1NC(=O)NCC1(Nc2ccc(-c3ccccc3)cc2)CCCC1 |
| 111 to 113 °C | COC(=O)c1cc(C(C)=O)ccc1OCCCC(=O)O |
| 79 to 81 °C | COC(=O)C1=C(SCc2ccc(OC)cc2)C2=C(CC=CC=C2)CC1 |
| 80 to 81 °C | CC(=O)Nc1ccc2c(c1)OC(C)(C)C=C2 |
| 152 to 153 °C | CC(C(=O)O)c1ccc(-n2cc(Cl)cn2)cc1 (configuration not stated) |
| 182 °C | CCCn1c(=O)c2c(nc(/C=C/c3ccc4c(c3)OCCO4)n2C)n(CCC)c1=O |
| 101 to 103 °C | CC(C)CCCc1c(C(C)C)nc(C(C)C)c(CO)c1-c1ccc(F)cc1 |
| 178 to 183 °C | O=C(Nc1ccc(OC(F)(F)F)cc1)NC1CCN(C(=O)CN2CCN(Cc3ccccc3)CC2)CC1 |
| 118 to 120 °C | Fc1ccc2c(N3CCN(CCCCn4cc5ccccc5c4)CC3)csc2c1 |
| 209 to 211 °C | O=Cc1c(O)cccc1OCc1cccc(C(=O)O)c1 |
| 103 to 105 °C | COc1ccc([C@H]2CC[C@H](c3ccc(OC)c(OC)c3)S2)cc1OC (relative stereo) |
| 123 to 126 °C | Cc1ccc(N(C)CCC(C)NCC(O)c2ccc(O)c(C(N)=O)c2)cc1 (configuration not stated) |
| 252 to 253 °C | Cc1c[nH]c2c(Sc3nc4cc(Cl)ccc4[nH]3)ccc([N+](=O)[O-])c12 |
| 133 to 134 °C | CCCN1CC(CSC)=C[C@H]2Cc3n[nH]cc3C[C@@H]21 (relative stereo) |
| 103 to 105 °C | CCCOC(Cc1ccc(OCCc2nc(-c3ccccc3)oc2C)c2ccccc12)C(=O)O (configuration not stated) |
| 189 to 192 °C | O=C(Cn1nnc2ccccc21)Nc1ccc(-n2nc(C(F)(F)F)cc2C2CC2)nc1 |
| 121 to 123 °C | Oc1cc2c(cc1O)OCC(c1cccc(F)c1)C2 (configuration not stated) |
| 279 to 281 °C | COc1cccc(CNC(=O)c2cc3c(s2)N(C)CNC3)c1 |
| 88 to 89 °C | C=CCNC(=O)N1CC(OCc2ccc(Cl)c(Cl)c2)C1 |
| 128 to 132 °C | O=Cc1c2ccccc2cc2oc3ccccc3c12 |
| 78 to 79 °C | CCC1C(=O)Oc2c(Oc3ccccc3Cl)cccc21 (configuration not stated) |
| 150 to 152 °C | CCn1c(=O)c2cccc3c2n(c1=O)-c1cc(C(F)(F)F)ccc1S3 |

| melting point | Compound |
| --- | --- |
| 161 to 162 °C | COc1ccnc(CCc2nc3cc(-c4ccc(OCc5ccccc5)cc4)cnc3[nH]2)c1 |
| 189 to 191 °C | Cc1cnc(CNC(=O)c2sc(-n3cnn(Cc4ccc(F)cc4)c3=O)cc2C)cn1 |
| 124 to 125 °C | N#CN1CCC(c2nn(-c3ccccc3)c3ccccc23)CC1 |
| 195 °C | N=C(Cc1ccccc1)N1CC2C(=O)CCC(c3ccccc3)(c3ccccc3)C2C1 (configuration not stated) |
| 128 to 130 °C | Oc1c(Br)cc(-c2cccc3sc4ccccc4c23)cc1Br |
| 224 to 226 °C | Oc1ccc(-c2nsc3ccccc23)c(Cl)c1Cl |
| 194 to 195 °C | CC(C)(C)OC(=O)Nc1ccc(C(=O)O)c2ccccc12 |
| 186 to 187 °C | CSC(=O)C(=O)c1nsc(NC=O)n1 |
| 44 to 46 °C | CS(=O)(=S)OCCC(=O)O (configuration not stated) |
| 175 to 177 °C | CCOC(=O)c1ccc(NC(=O)c2ccc3c(c2)C(C)(C)CC(=O)N3C)cc1 |
| 217 to 218 °C | CCn1nc2c(N)nc3ccccc3c2c1C |
| 110 to 112 °C | Cc1cccc(-c2n[nH]cc2-c2ccc(F)c(-c3cn[nH]c3)c2)n1 |
| 194 °C | CC(=O)OCC(=O)C1(O)CCC2C3CC=C4C=C(OC(C)=O)C=CC4(C)C34OC4CC21C (configuration not stated) |
| 34 °C | C=CC(COC(c1ccccc1)(c1ccccc1)c1ccccc1)OCCCCCCCCCCCCCCCC (configuration not stated) |
| 151 °C | CC(C)(Cc1ccc(F)cc1)NC(=O)Nc1ccccc1CCc1cc(C(C)(C)C)c(O)c(C(C)(C)C)c1 |
| 144 to 145 °C | Oc1ccc(Cl)cc1CN1COC(c2ccc(C(F)(F)F)cc2)=N1 |
| 168 to 169 °C | CC(C)(C)c1cc(CCc2ccccc2NC(=O)NC2CCCc3ccccc32)cc(C(C)(C)C)c1O (configuration not stated) |
| 213 to 215 °C | O=C(O)c1cc(OCCOc2cccc3ccccc23)cc(OCCOc2cccc3ccccc23)c1 |
| 298 to 300 °C | O=C1NC2(C(=O)O)CC3CC1C2C3 (configuration not stated) |
| 157 to 160 °C | Cc1cn(NCCCc2ccncc2F)c2ccc(O)cc12 |
| 118 to 125 °C | CNC(=O)C1(Nc2nc(Nc3cc4c(cc3OC)CCN(CC(=O)N(C)C)CC4)ncc2Cl)CC1 |
| 73 to 75 °C | Cc1nc(-c2cccc(C(F)(F)F)c2)ccc1CO |
| 134 to 136 °C | CCc1ccc2ncc([N+](=O)[O-])c(Nc3ccccc3Cl)c2c1 |

| melting point | Compound |
| --- | --- |
| 184 to 185 °C | CCSc1cc(O)nc(N(C)C)n1 |
| 178 to 179 °C | CCCCNC(=O)Nc1ccc(S(C)=O)cc1C(=O)NCC1CCN(C(c2ccccc2)c2ccccc2)CC1 (configuration not stated) |
| 95 to 97 °C | COc1cscc1NC=O |
| 77 to 78 °C | CCCCCC(=O)NC(C(C)=O)c1ccccc1 (configuration not stated) |
| 126 to 128 °C | c1ccc(OCC2CCN(CCCOc3cccc4[nH]c5ccccc5c34)CC2)cc1 |
| 179 to 181 °C | NC(=O)c1ncn2c1NCCC2c1cccc(C(F)(F)F)c1 (configuration not stated) |
| 218 to 220 °C | CCOCc1nc2c(N)nc3cc(-c4ccc(F)nc4)cnc3c2n1CC(C)(C)O |
| 257 to 260 °C | CCOC(=O)c1cc2c(O)nncc2nc1Nc1ccccc1 |
| 138 to 140 °C | Nc1nc2ccccc2c2c1ncn2CCOCCCc1ccccn1 |
| 131 to 132 °C | COC(=O)c1c(C)c(N=O)c2ccccn12 |
| 85 to 88 °C | O=C1c2ccccc2C(=O)N1OCCCC#Cc1ccc(F)cc1 |
| 87 °C | CC(C)C[C@H](C(=O)OCc1ccccc1)N1CC[C@]2(CCCN2C(=O)C(C)C)C1=O |
| 57 to 58 °C | O=C(COc1ccccc1Cl)NCCO[N+](=O)[O-] |
| 149 °C | C#Cc1cnn2c(C(F)F)cc(-c3cccc(C(F)(F)F)c3)nc12 |
| 162 to 164 °C | CCCCOc1ccc(C(=O)N[C@@H]2CCc3cccc(C4CCN(C)CC4)c3C2)cc1 |
| 95 to 110 °C | CC(=O)C(CC=Cc1ccccc1Cl)(CCC(=O)O)c1ccccc1 (configuration not stated) |
| 128 °C | Cc1cccc(N2C(=S)SCC2O)n1 (configuration not stated) |
| 251 to 253 °C | Cc1cc2c3c(cccc3c1)C(=O)N(O)C2=O |
| 66 °C | FC(F)(F)c1ccc(Oc2cc(Cl)nc(Cl)c2)c(Cl)c1 |
| 196 to 197 °C | CC(=O)NCCNc1nc(-c2ccccc2)nc2[nH]c(COc3ccccc3)cc12 |
| 165 to 168 °C | CCNc1ccc(Cc2ccc(NCC)c3ccccc23)c2ccccc12 |

| Compound | melting point |
| --- | --- |
| CC1(C)Cc2ccccc2C(c2cnc3ccccc3c2)N1 (configuration not stated) | 117 to 122 °C |
| CN1C(=O)[C@H](NC(=O)Cc2ccc(C(F)(F)F)cc2)N=C(c2ccccc2)c2ccccc21 | 224 to 226 °C |
| CN1CCN(C(=O)OC2c3ccc(C(F)(F)F)cc3C(=O)N2c2ccc3ccc(Cl)nc3n2)CC1 (configuration not stated) | 219 °C |
| COc1cccc2c(=O)c3c(OCC4CS4)cc(OCC4CS4)cc3oc12 (configuration not stated) | 240 °C |
| Cc1ccccc1-n1c(C=Cc2ccccc2F)nc2nccnc2c1=O | > 250 °C |

Source: a melting point compilation (Tetko et al.; mined from patent text by program, amines drawn as free bases though some values may be those of a salt)
